This note sets out measurements from patent US11701361B2, “p110-delta inhibitors treat and prevent autoimmunity while sparing the ability to mount an immune response to exogenous immunogens” (THE REGENTS OF THE UNIVERSITY OF COLORADO, priority 2018, dated 2023).

Structures are written as SMILES.

In this experiment the test system is SHP-1^−/− B cells. The experiment in a line: adoptive transfer of autoreactive SHP-1-/- Ars/A1 B cells, loss of anergy. It counts as in vivo, mouse. An excerpt: Except where otherwise indicated, 6-16 week old mice were used in all experiments. Both male and female mice were used, but experiments were sex matched and both sexes gave identical results, with the exception of only female mice being used in the VH125.NOD experiments as female mice develop accelerated disease. hCD20-TamCre animals (Khalil, et al. Science 336: 1178-81) were intercrossed with mice carrying the rosa26-flox-STOP-YFP allele (Srinivas, et al., BMC Dev. Biol. 1:4), generating mice in which YFP is expressed in B cells upon Cre activation. These mice were crossed with Ars/A1 (Benschop, et al., Immunity 14: 33-43) transgenic mice to generate hCD20-TamCre×rosa26-flox-STOP-YFP×Ars/A1 mice. B cells from these mice will be referred to as WT Ars/A1. These mice were also crossed with SHIP-1^flox/flox mice (Karlsson, et al. J Exp Med 198: 333-40). hCD20-TamCre×rosa26-flox-STOP-YFP×Ars/A1 mice were also crossed to PTEN^flox/flox mice (Anzelon, et al., Nat Immunol 4: 287-94) and SHP-1^flox/flox mice to generate mice in which SHIP-1, PTEN and SHP-1 deletion can be induced in anergic B cells. hCD20-TamCre×rosa26-flox-STOP-YFP×PTEN^flox/flox×Ars/A1 were crossed to hCD20-TamCre×rosa26-flox-STOP-YFP×SHIP-1^flox/flox×Ars/A1 to generate hCD20-TamCre×rosa26-flox-STOP-YFPx PTEN^flox/wt×SHIP-1^flox/wt×Ars/A1 to allow for the double haploinsufficiency of both PTEN and SHIP-1 within B cells.
2 hours before adoptive transfer, C57BL/6 recipient mice received 200 rads irradiation. […] B cells from donor mice were isolated via depletion of CD43+ cells with anti-CD43-conjugated magnetic beads (MACS anti-mouse CD43; Miltenyi Biotec). Alternatively, CD4+ T cells were isolated via CD4 positive selection (MACS anti-mouse CD4 (L3T4) Miltenyi Biotec). Resultant populations were >97% pure based on flow cytometric analyses. Donor B cells were labeled with either CellTrace Violet (Molecular Probes) or CFSE (Molecular Probes) at 5 μM for 5 minutes at room temperature prior to transfer. Donor CD4 T cells were labeled with CFSE (Molecular Probes) at 5 μM for 5 minutes at room temperature prior to transfer. 1-2×10^6 donor cells in 200 μl PBS were adoptively transferred via IV injection. 24 hours post transfer, tamoxifen was administered to activate Cre. Tamoxifen (Sigma-Aldrich) was dissolved in 100% corn oil (Sigma-Aldrich) at 20 mg/ml. Recipient mice were injected IP with 100 μl (2 mg) on two consecutive days.
Diet dose (DD) is calculated by multiplying the single daily dose (SD) by the body weight of a mouse (BW) and dividing that by the daily food intake (FI) [DD=(SD×BW)/FI].
For VH125.NOD experiments animals are placed on control chow immediately after weaning.
Spleens were mechanically disrupted, single-cell suspensions were generated, and red blood cells were lysed with ammonium chloride TRIS. Cells were resuspended in PBS containing 1% FBS and incubated with indicated antibodies. For analysis of cell surface markers, antibodies against the following molecules were used: B220-PE (BioLegend), B220-BV786 (BD Biosciences), B220-BV510 (BioLegend), CD4-BV711 (BioLegend), CD8-BV421 (BioLegend), CD138-PECy7 (BioLegend), CD69-BV786 (BD Biosciences), CD86-PerCPCy5.5 (BioLegend). After cell surface staining, the cells were fixed and permeabilized with Cytofix/Cytoperm (BD) per manufacturer's instructions and stained with Dylight650-E4 anti-Ars/A1 idiotype (produced and conjugated in our laboratory) OR HEL-650 (produced and conjugated in our laboratory) and Alexa Fluor 488-anti-GFP (rabbit polyclonal; Life Technologies). Events were collected on a CyAn ADP (Dako) and subsequent analysis using FlowJo software (Tree Star).
For detection of IgM^a anti-Ars antibodies, microtiter plates were coated with 10 μg/ml Ars-BSA16 in PBS and blocked with 2 mg/ml BSA in PBS 0.05% Tween-20. For detection of IgM^a anti-HEL antibodies, microtiter plates were coated with 10 μg/ml HEL in PBS and blocked with 2 mg/ml BSA in PBS 0.05% Tween-20. […]

Setting [1] is: 0.9375 mg/kg or 3.75 mg/kg chow vs vehicle.

As for `CC[C@H](Nc1ncnc2nc[nH]c12)c1nc2cccc(F)c2c(=O)n1-c1ccccc1` [idelalisib, 5-fluoro-3-phenyl-2-[(1S)-1-(7H-purin-6-ylamino)propyl]-4(3H)-quinazolinone], under setting [1], the “differentiation of SHP-1−/− B cells (plasmablasts)” value is given as “equivalent amounts” and the “proliferation of SHP-1−/− B cells” value is reported as “equivalent amounts”. Moreover, for the setting “30 mg/kg chow”, the “differentiation of SHP-1−/− B cells (plasmablasts)” value is given as “decreased” and the “proliferation of SHP-1−/− B cells” value is reported as “decreased”. The “recovery of adoptively transferred SHP-1−/− B cells from the spleens (trend of reduced recovery)” value (animals receiving idelalisib-containing chow) is “not significant”. Besides, under “high dose (30 mg/kg chow)”, the “autoimmunity (autoantibody, ASCs)” value is “blocked”. Further, the “loss of anergy caused by SHP-1 induced deficiency (autoantibody, ASCs)” value (low and intermediate dose (0.9375 and 3.75 mg/kg chow)) is listed as “no effect”.
